Assay results taken from ChEMBL document CHEMBL4823319, “Design, synthesis, and biological evaluation of potent 1,2,3,4-tetrahydroisoquinoline derivatives as anticancer agents targeting NF-κB signaling pathway” (Bioorg Med Chem, 2021).
Values belong to the compound of their own block, whether it stands above or below them. The source made the active and inactive calls. No cut-off for these calls is given here.

Assays:
NUGC-3 = assay: Anticancer activity against human […] cells assessed as growth inhibition incubated for 48 hrs by sulforhodamine B method; assay type: functional
ACHN = assay: Anticancer activity against human […] cells assessed as growth inhibition incubated for 48 hrs by sulforhodamine B method; assay type: functional
NCI-H23 = assay: Anticancer activity against human NCI-H23 cells assessed as growth inhibition incubated for 48 hrs by sulforhodamine B method; assay type: functional
HCT-15 = assay: Anticancer activity against human HCT-15 cells assessed as growth inhibition incubated for 48 hrs by sulforhodamine B method; assay type: functional
MDA-MB-231 [1] = assay: Anticancer activity against human MDA-MB-231 cells assessed as growth inhibition incubated for 48 hrs by sulforhodamine B method; assay type: functional
PC-3 = assay: Anticancer activity against human PC-3 cells assessed as growth inhibition incubated for 48 hrs by sulforhodamine B method; assay type: functional
[2] = Inhibition of NF-kappaB transcriptional activity in mouse RAW264.7 cells harbouring NF-kappaB-SEAP-NPT reporter plasmid assessed as reduction in LPS-induced SEAP expression incubated for 16 hr with LPS; assay type: cell-based
MDA-MB-231 [3] = assay: Inhibition of NF-kappaB in human MDA-MB-231 cells assessed as reduction in LPS-induced NF-kappaB nuclear translocation at 10 uM treated with LPS for 24 hrs by Western blotting analysis; assay type: cell-based
MDA-MB-231 [4] = assay: Inhibition of NF-kappaB in human MDA-MB-231 cells assessed as reduction in LPS-induced NF-kappaB nuclear translocation at 10 uM treated with LPS for 24 hrs by immunocytochemical analysis; assay type: cell-based

Compound: O=C(Nc1cccc(C(F)(F)F)c1)C1c2ccccc2CCN1C(=O)c1ccc(Cl)cc1 (stereo unspecified)
GI50 (NUGC-3): > 10 µM

Compound: O=C(Nc1ccccc1O)C1NCCc2ccccc21 (stereo unspecified)
GI50 (NUGC-3): > 10 µM

GI50 (ACHN): 0.088 µM
GI50 (NCI-H23): 0.072 µM
GI50 (HCT-15): 0.076 µM
GI50 (MDA-MB-231 [1]): 0.086 µM
GI50 (PC-3): 0.09 µM
Compound: COc1cccc2c1C(=O)c1c(O)c3c(c(O)c1C2=O)C[C@@](O)(C(=O)CO)C[C@@H]3O[C@H]1C[C@H](N)[C@H](O)[C@H](C)O1 [DOXORUBICIN]

GI50 (ACHN): 5.32 µM
GI50 (NCI-H23): 3.39 µM
GI50 (HCT-15): 5.73 µM
GI50 (MDA-MB-231 [1]): 5.05 µM
GI50 (PC-3): 4.25 µM
Compound: O=C(Nc1ccc(O)cc1)C1NCCc2ccccc21 (stereo unspecified)
GI50 (NUGC-3): 4.37 µM

IC50 [2]: 40.4 µM
Compound: COc1cc2c(cc1O)CCC(C(=O)Nc1ccccc1)O2 (stereo unspecified)

Compound: O=C(Nc1cc(C(F)(F)F)cc(C(F)(F)F)c1)c1nccc2ccccc12
GI50 (NUGC-3): > 10 µM

Compound: O=C(Nc1cccc(O)c1)C1NCCc2ccccc21 (stereo unspecified)
GI50 (NUGC-3): > 10 µM

GI50 (ACHN): 5.2 µM
GI50 (NCI-H23): 4.4 µM
GI50 (HCT-15): 5.44 µM
GI50 (MDA-MB-231 [1]): 4.74 µM
GI50 (PC-3): 6.59 µM
Compound: O=C(Nc1ccc(C(F)(F)F)cc1)C1NCCc2ccccc21 (stereo unspecified)
GI50 (NUGC-3): 4.22 µM

Compound: O=C(Nc1ccc(Cl)cc1)c1nccc2ccccc12
GI50 (NUGC-3): > 10 µM

Compound: COc1ccc(NC(=O)C2NCCc3ccccc32)cc1 (stereo unspecified)
GI50 (NUGC-3): > 10 µM

Compound: O=C(Nc1cccc(Cl)c1)c1nccc2ccccc12
GI50 (NUGC-3): > 10 µM

Compound: O=C(Nc1ccc(C(F)(F)F)cc1)c1nccc2ccccc12
GI50 (NUGC-3): > 10 µM

Compound: O=C(Nc1cccc(O)c1)c1nccc2ccccc12
GI50 (NUGC-3): > 10 µM

GI50 (ACHN): 1.98 µM
GI50 (NCI-H23): 1.94 µM
GI50 (HCT-15): 1.74 µM
GI50 (MDA-MB-231 [1]): 2.28 µM
GI50 (PC-3): 2.01 µM
Compound: COc1ccccc1NC(=O)C1c2ccccc2CCN1C(=O)c1ccc(Cl)cc1 (stereo unspecified)
GI50 (NUGC-3): 1.59 µM
inhibition (MDA-MB-231 [3]): Dose-Dependent Effect
inhibition (MDA-MB-231 [4]): Active

Compound: O=C(Nc1ccccc1O)c1nccc2ccccc12
GI50 (NUGC-3): > 10 µM

Compound: O=C(Nc1cccc(C(F)(F)F)c1)c1nccc2ccccc12
GI50 (NUGC-3): > 10 µM

Compound: O=C(Nc1ccccc1C(F)(F)F)c1nccc2ccccc12
GI50 (NUGC-3): > 10 µM

Compound: O=C(Nc1ccc(O)cc1)c1nccc2ccccc12
GI50 (NUGC-3): > 10 µM

Compound: COc1cccc(NC(=O)C2NCCc3ccccc32)c1 (stereo unspecified)
GI50 (NUGC-3): > 10 µM

Compound: O=C(Nc1ccccc1C(F)(F)F)C1c2ccccc2CCN1C(=O)c1ccc(Cl)cc1 (stereo unspecified)
GI50 (NUGC-3): > 10 µM

Compound: COc1ccccc1NC(=O)c1nccc2ccccc12
GI50 (NUGC-3): > 10 µM

GI50 (ACHN): 3.47 µM
GI50 (NCI-H23): 3.34 µM
GI50 (HCT-15): 5.11 µM
GI50 (MDA-MB-231 [1]): 4.35 µM
GI50 (PC-3): 4.49 µM
Compound: O=C(Nc1ccc(C(F)(F)F)cc1)C1c2ccccc2CCN1C(=O)c1ccc(Cl)cc1 (stereo unspecified)
GI50 (NUGC-3): 4.2 µM

Compound: COc1cccc(NC(=O)c2nccc3ccccc23)c1
GI50 (NUGC-3): > 10 µM

Compound: O=C(Nc1cccc(C(F)(F)F)c1)C1NCCc2ccccc21 (stereo unspecified)
GI50 (NUGC-3): > 10 µM

Compound: O=C(Nc1ccc(O)cc1)C1c2ccccc2CCN1C(=O)c1ccc(Cl)cc1 (stereo unspecified)
GI50 (NUGC-3): > 10 µM

GI50 (ACHN): 2.96 µM
GI50 (NCI-H23): 2.42 µM
GI50 (HCT-15): 3.62 µM
GI50 (MDA-MB-231 [1]): 3.21 µM
GI50 (PC-3): 2.89 µM
Compound: COc1cccc(NC(=O)C2c3ccccc3CCN2C(=O)c2ccc(Cl)cc2)c1 (stereo unspecified)
GI50 (NUGC-3): 2.14 µM

Compound: COc1ccccc1NC(=O)C1NCCc2ccccc21 (stereo unspecified)
GI50 (NUGC-3): > 10 µM

Compound: O=C(Nc1cc(C(F)(F)F)cc(C(F)(F)F)c1)C1NCCc2ccccc21 (stereo unspecified)
GI50 (NUGC-3): > 10 µM

Compound: O=C(Nc1ccccc1O)C1c2ccccc2CCN1C(=O)c1ccc(Cl)cc1 (stereo unspecified)
GI50 (NUGC-3): > 10 µM

Compound: O=C(Nc1cccc(O)c1)C1c2ccccc2CCN1C(=O)c1ccc(Cl)cc1 (stereo unspecified)
GI50 (NUGC-3): > 10 µM

GI50 (ACHN): 2.65 µM
GI50 (NCI-H23): 2.02 µM
GI50 (HCT-15): 3.52 µM
GI50 (MDA-MB-231 [1]): 2.71 µM
GI50 (PC-3): 2.56 µM
Compound: O=C(Nc1cc(C(F)(F)F)cc(C(F)(F)F)c1)C1c2ccccc2CCN1C(=O)c1ccc(Cl)cc1 (stereo unspecified)
GI50 (NUGC-3): 2.83 µM

Compound: O=C(Nc1ccccc1C(F)(F)F)C1NCCc2ccccc21 (stereo unspecified)
GI50 (NUGC-3): > 10 µM

Compound: O=C(Nc1ccccc1Cl)c1nccc2ccccc12
GI50 (NUGC-3): > 10 µM

GI50 (ACHN): 3.67 µM
GI50 (NCI-H23): 4.34 µM
GI50 (HCT-15): 6.08 µM
GI50 (MDA-MB-231 [1]): 4.9 µM
GI50 (PC-3): 3.48 µM
Compound: COc1ccc(NC(=O)C2c3ccccc3CCN2C(=O)c2ccc(Cl)cc2)cc1 (stereo unspecified)
GI50 (NUGC-3): 3.63 µM

Compound: COc1ccc(NC(=O)c2nccc3ccccc23)cc1
GI50 (NUGC-3): > 10 µM
